# System: not listed separately
# Assay: Permeability of compound by PAMP assay
# Format: ADME
# Conditions: not told; read-out: permeability
row,SMILES,Papp
1,C/C=C/C[C@@H](C)[C@@H](O)[C@H]1C(=O)N[C@@H]([C@@H](C)O)C(=O)N(C)CC(=O)N(C)[C@@H](CC(C)C)C(=O)N[C@@H](C(C)C)C(=O)N(C)[C@@H](CC(C)C)C(=O)N[C@@H](C)C(=O)N[C@H](C)C(=O)N(C)[C@@H](CC(C)C)C(=O)N(C)[C@@H](CC(C)C)C(=O)N(C)[C@@H](C(C)C)C(=O)N1C,2.8 ×10⁻⁶ cm/s
2,C/C=C/C[C@@H](C)[C@@H](O)[C@H]1C(=O)N[C@@H](C(C)C)C(=O)N(C)CC(=O)N(C)[C@@H](CC(C)C)C(=O)N[C@@H](C(C)C)C(=O)N(C)[C@@H](CC(C)C)C(=O)N[C@@H](C)C(=O)N[C@H](C)C(=O)N(C)[C@@H](CC(C)C)C(=O)N(C)[C@@H](CC(C)C)C(=O)N(C)[C@@H](C(C)C)C(=O)N1C,4.4 ×10⁻⁶ cm/s

# The next lines start with the values.
row,Papp,SMILES
1,2.5 ×10⁻⁶ cm/s,C/C=C/C[C@@H](C)[C@@H](O)[C@H]1C(=O)N[C@@H](CC)C(=O)N(C)CC(=O)N[C@@H](CC(C)C)C(=O)N[C@@H](C(C)C)C(=O)N(C)[C@@H](CC(C)C)C(=O)N[C@@H](C)C(=O)N[C@H](C)C(=O)N(C)[C@@H](CC(C)C)C(=O)N(C)[C@@H](CC(C)C)C(=O)N(C)[C@@H](C(C)C)C(=O)N1C
2,7.9 ×10⁻⁶ cm/s,C/C=C/C[C@@H](C)[C@@H](O)[C@H]1C(=O)N[C@@H](C)C(=O)N(C)CC(=O)N(C)[C@@H](CC(C)C)C(=O)N[C@@H](C(C)C)C(=O)N(C)[C@@H](CC(C)C)C(=O)N[C@@H](C)C(=O)N[C@H](C)C(=O)N(C)[C@@H](CC(C)C)C(=O)N(C)[C@@H](CC(C)C)C(=O)N(C)[C@@H](C(C)C)C(=O)N1C
3,4.1 ×10⁻⁶ cm/s,C/C=C/C[C@@H](C)[C@@H](O)[C@H]1C(=O)N[C@@H](CC)C(=O)N(C)CC(=O)N[C@@H](CC(C)C)C(=O)N[C@@H](C(C)C)C(=O)N[C@@H](CC(C)C)C(=O)N[C@@H](C)C(=O)N[C@H](C)C(=O)N(C)[C@@H](CC(C)C)C(=O)N(C)[C@@H](CC(C)C)C(=O)N(C)[C@@H](C(C)C)C(=O)N1C
4,3.3 ×10⁻⁶ cm/s,C/C=C/C[C@@H](C)[C@@H](OC(C)=O)[C@H]1C(=O)N[C@@H](CC)C(=O)N(C)CC(=O)N(C)[C@@H](CC(C)C)C(=O)N[C@@H](C(C)C)C(=O)N(C)[C@@H](CC(C)C)C(=O)N[C@@H](C)C(=O)N[C@H](C)C(=O)N(C)[C@@H](CC(C)C)C(=O)N(C)[C@@H](CC(C)C)C(=O)N(C)[C@@H](C(C)C)C(=O)N1C
5,0.42 ×10⁻⁶ cm/s,C/C=C/C[C@@H](C)[C@@H](O)[C@H]1C(=O)N[C@@H](CC)C(=O)N(C)CC(=O)N(C)[C@@H](CC(C)C)C(=O)N[C@@H](C(C)C)C(=O)N(C)[C@@H](CC(C)C)C(=O)N[C@@H](C)C(=O)N[C@H](C)C(=O)N(C)[C@@H](CC(C)C)C(=O)N(C)[C@@H](CC(C)C)C(=O)N[C@@H](C(C)C)C(=O)N1C

# Species: Homo sapiens
# Assay: Binding affinity to mCherry labelled that cyclophilin (unknown origin) relative to control
# Conditions: not given
row,SMILES,Activity
1,C/C=C/C[C@@H](C)[C@@H](O)[C@H]1C(=O)N[C@@H](CC)C(=O)N(C)CC(=O)N(C)[C@@H](C(C)C)C(=O)N[C@@H](C(C)C)C(=O)N(C)[C@@H](CC(C)C)C(=O)N[C@@H](C)C(=O)N[C@H](C)C(=O)N(C)[C@@H](CC(C)C)C(=O)N(C)[C@@H](CC(C)C)C(=O)N(C)[C@@H](C(C)C)C(=O)N1C,126%

# Species: Homo sapiens
# Assay: Binding affinity to mCherry labelled that cyclophilin (unknown origin) assessed as fold change
# Conditions: not given
row,SMILES,fold change (FC)
1,C/C=C/C[C@@H](C)[C@@H](O)[C@H]1C(=O)N[C@@H](CC)C(=O)N(C)CC(=O)N(C)[C@@H](C(C)C)C(=O)N[C@@H](C(C)C)C(=O)N(C)[C@@H](CC(C)C)C(=O)N[C@@H](C)C(=O)N[C@H](C)C(=O)N(C)[C@@H](CC(C)C)C(=O)N(C)[C@@H](CC(C)C)C(=O)N(C)[C@@H](C(C)C)C(=O)N1C,2
